Data as given in ChEMBL document CHEMBL2424578, “Synergistic effects of berberines with antibiotics on clinical multi-drug resistant isolates of methicillin-resistant Staphylococcus aureus (MRSA)” (2013).
≈ marks a conversion by molar mass, not a printed value.

Experiments:
Assay type in all cases: functional
[1] = test system: Staphylococcus aureus; assay: Antibacterial activity against SCCmec type 3 genotype-positive and methicillin-resistant Staphylococcus aureus clinical isolates after 24 hrs by broth microdilution method
[2] = test system: Staphylococcus aureus; assay: Antibacterial activity against SCCmec type 3 genotype-positive and methicillin-resistant Staphylococcus aureus clinical isolates after 24 hrs by chequerboard method in presence of levofloxacin
[3] = test system: Staphylococcus aureus; assay: Antibacterial activity against SCCmec type 3 genotype-positive and methicillin-resistant Staphylococcus aureus clinical isolates after 24 hrs by chequerboard method in presence of azithromycin
[4] = test system: Staphylococcus aureus; assay: Antibacterial activity against SCCmec type 3 genotype-positive and methicillin-resistant Staphylococcus aureus clinical isolates after 24 hrs by chequerboard method in presence of ampicillin
[5] = test system: Staphylococcus aureus; assay: Antibacterial activity against SCCmec type 3 genotype-positive and methicillin-resistant Staphylococcus aureus clinical isolates after 24 hrs by chequerboard method in presence of cefazolin

Structure (SMILES)	MBC [1]	FICI50 [2]	FICI90 [2]	fractional inhibitory concentration index (FICI) [2]	FICI50 [3]	FICI90 [3]	fractional inhibitory concentration index (FICI) [3]	FICI50 [4]	FICI90 [4]	fractional inhibitory concentration index (FICI) [4]	MIC [1]	FICI50 [5]	FICI90 [5]	fractional inhibitory concentration index (FICI) [5]
CN[C@H](CC(C)C)C(=O)N[C@H]1C(=O)N[C@@H](CC(N)=O)C(=O)N[C@H]2C(=O)N[C@H]3C(=O)N[C@H](C(=O)N[C@H](C(=O)O)c4cc(O)cc(O)c4-c4cc3ccc4O)[C@H](O)c3ccc(c(Cl)c3)Oc3cc2cc(c3O[C@@H]2O[C@H](CO)[C@@H](O)[C@H](O)[C@H]2O[C@H]2C[C@](C)(N)[C@H](O)[C@H](C)O2)Oc2ccc(cc2Cl)[C@H]1O [VANCOMYCIN]	2 µg/mL (≈ 1.38 µM)	–	–	–	–	–	–	–	–	–	–	–	–	–
CC1(C)S[C@@H]2[C@H](NC(=O)[C@H](N)c3ccccc3)C(=O)N2[C@H]1C(=O)O [AMPICILLIN]	64 µg/mL (≈ 183 µM)	–	–	–	–	–	–	–	–	–	–	–	–	–
COc1ccc2cc3[n+](cc2c1OC)CCc1cc2c(cc1-3)OCO2.[Cl-] [BERBERINE CHLORIDE]	64 µg/mL	0.5	0.75	0.375	0.313	0.5	0.25	2	2	1.5	32 µg/mL	2	2	1.5
CC[C@H]1OC(=O)[C@H](C)[C@@H](O[C@H]2C[C@@](C)(OC)[C@@H](O)[C@H](C)O2)[C@H](C)[C@@H](O[C@@H]2O[C@H](C)C[C@H](N(C)C)[C@H]2O)[C@](C)(O)C[C@@H](C)CN(C)[C@H](C)[C@@H](O)[C@]1(C)O [AZITHROMYCIN]	–	–	–	–	–	–	–	–	–	–	2000 µg/mL (≈ 2670 µM)	–	–	–
C[C@H]1COc2c(N3CCN(C)CC3)c(F)cc3c(=O)c(C(=O)O)cn1c23.C[C@H]1COc2c(N3CCN(C)CC3)c(F)cc3c(=O)c(C(=O)O)cn1c23.O [LEVOFLOXACIN]	8 µg/mL	–	–	–	–	–	–	–	–	–	2 µg/mL	–	–	–
COS(=O)(=O)[O-].COc1ccc2c(c1OC)C[N+]1(C)CCc3cc4c(cc3C1=C2)OCO4 (stereo not drawn)	256 µg/mL	0.375	0.5	0.25	0.375	0.5	0.188	2	2	1.5	64 µg/mL	2	2	1.5
